Laboratory results taken from ChEMBL document CHEMBL4715789, “Identification of a Potential Antimalarial Drug Candidate from a Series of 2-Aminopyrazines by Optimization of Aqueous Solubility and Potency across the Parasite Life Cycle” (J Med Chem, 2016).
Converted amounts (≈) assume the structure as drawn.

Legend:
[1] = Aqueous solubility of compound in pH 2 0.01M HCl incubated for 2 hrs under shaking condition by shake-flask method based HPLC-DAD analysis; type: physicochemical
[2] = Aqueous solubility of compound in pH 6.5 PBS incubated for 2 hrs under shaking condition by shake-flask method based HPLC-DAD analysis; type: physicochemical
Plasmodium berghei [3] = test: Antiplasmodial activity against Plasmodium berghei ANKA infected in NMRI mouse assessed as reduction in parasitemia at 3 mg/kg, po qd for 4 consecutive days measured at day 7 post infection by flow cytometry analysis; type: functional; design: scale not given: the % may be the effect or the level left; settings: time 4 day
Plasmodium berghei [4] = test: Antiplasmodial activity against Plasmodium berghei ANKA infected in NMRI mouse model assessed as mean survival days at 3 mg/kg, po qd for 4 consecutive day; type: functional; settings: time 4 day
Plasmodium falciparum [5] = test: microbe, parasite or virus in culture; settings: NF54, Erythrocyte
Description: Antiplasmodial activity against multidrug-sensitive Plasmodium falciparum NF54 infected in human erythrocytes assessed as reduction in [3H]hypoxanthine incorporation preincubated for 48 hrs followed by [3H]hypoxanthine addition and measured after 24 hrs by liquid scintillation counting method

Plasmodium falciparum [6] = test: microbe, parasite or virus in culture; settings: K1, Erythrocyte
Description: Antiplasmodial activity against multidrug-resistant Plasmodium falciparum K1 infected in erythrocytes assessed as reduction in [3H]hypoxanthine incorporation preincubated for 48 hrs followed by [3H]hypoxanthine addition and measured after 24 hrs by liquid scintillation counting method

[7] = Metabolic stability in human liver microsomes assessed as compound remaining at 0.1 uM measured after 30 mins in presence of cofactor NADPH by LC-MS/MS analysis; type: ADME, Microsome; settings: read-out: Stabilty
[8] = Metabolic stability in rat liver microsomes assessed as compound remaining at 0.1 uM measured after 30 mins in presence of cofactor NADPH by LC-MS/MS analysis; type: ADME, Microsome; settings: read-out: Stabilty
[9] = Metabolic stability in mouse liver microsomes assessed as compound remaining at 0.1 uM measured after 30 mins in presence of cofactor NADPH by LC-MS/MS analysis; type: ADME, Microsome; settings: read-out: Stabilty
Plasmodium berghei [10] = test: Antiplasmodial activity against Plasmodium berghei ANKA infected in NMRI mouse model assessed as mean survival days at 10 mg/kg, po qd for 4 consecutive day; type: functional; settings: time 4 day
[11] = molecular target: Voltage-gated inwardly rectifying potassium channel KCNH2 (Homo sapiens, UniProt Q12809); test: Inhibition of human ERG by IonWorks patch clamp electrophysiology method
Voltage-gated inwardly rectifying potassium channel KCNH2, sequence (Q12809 whole entry): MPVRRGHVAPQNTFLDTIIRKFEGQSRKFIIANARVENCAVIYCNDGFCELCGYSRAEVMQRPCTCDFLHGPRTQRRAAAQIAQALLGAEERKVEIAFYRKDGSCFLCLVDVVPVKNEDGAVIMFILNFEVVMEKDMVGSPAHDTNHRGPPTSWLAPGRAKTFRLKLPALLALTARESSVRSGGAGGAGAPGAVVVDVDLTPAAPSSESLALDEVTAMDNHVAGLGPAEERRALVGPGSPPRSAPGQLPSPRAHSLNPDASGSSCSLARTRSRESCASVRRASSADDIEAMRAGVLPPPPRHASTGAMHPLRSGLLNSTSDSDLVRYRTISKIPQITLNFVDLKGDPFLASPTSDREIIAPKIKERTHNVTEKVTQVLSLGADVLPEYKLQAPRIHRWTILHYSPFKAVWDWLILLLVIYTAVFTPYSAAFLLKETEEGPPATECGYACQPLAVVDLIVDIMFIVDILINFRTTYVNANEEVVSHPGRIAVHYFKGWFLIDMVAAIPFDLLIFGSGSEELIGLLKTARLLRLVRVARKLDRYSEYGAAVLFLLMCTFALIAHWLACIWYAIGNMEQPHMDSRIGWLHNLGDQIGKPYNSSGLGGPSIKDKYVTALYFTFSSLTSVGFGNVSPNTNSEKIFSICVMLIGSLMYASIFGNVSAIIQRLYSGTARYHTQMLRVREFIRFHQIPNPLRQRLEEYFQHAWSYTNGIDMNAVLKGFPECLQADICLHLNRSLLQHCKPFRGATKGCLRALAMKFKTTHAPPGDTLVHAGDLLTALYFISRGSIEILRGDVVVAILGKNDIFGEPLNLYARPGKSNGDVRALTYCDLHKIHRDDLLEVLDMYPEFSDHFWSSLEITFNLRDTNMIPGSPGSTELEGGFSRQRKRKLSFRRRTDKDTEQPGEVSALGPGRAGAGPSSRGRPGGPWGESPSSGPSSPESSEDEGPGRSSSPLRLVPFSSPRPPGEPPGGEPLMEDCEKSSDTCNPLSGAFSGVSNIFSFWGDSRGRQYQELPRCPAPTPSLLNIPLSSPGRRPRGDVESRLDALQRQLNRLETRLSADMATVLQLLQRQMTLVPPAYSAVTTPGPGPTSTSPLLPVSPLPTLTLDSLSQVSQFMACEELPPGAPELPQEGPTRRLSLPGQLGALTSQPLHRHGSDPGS

Plasmodium berghei [12] = test: Antiplasmodial activity against Plasmodium berghei ANKA infected in NMRI mouse assessed as reduction in parasitemia at 10 mg/kg, po qd for 4 consecutive days measured at day 7 post infection by flow cytometry analysis; type: functional; design: scale not given: the % may be the effect or the level left; settings: time 4 day
[13] = Cmax(app) in NMRI mouse plasma infected with Plasmodium berghei ANKA at 3 mg/kg, po qd for 4 consecutive days and measured post last dose; type: ADME, organism-based; settings: time 4 day
[14] = Selectivity index, ratio of IC50 for cytotoxicity against CHO cells by MTT assay to IC50 for antiplasmodial activity against multidrug-sensitive Plasmodium falciparum NF54 infected in human erythrocytes; type: toxicity, cell-based; settings: Chinese hamster, read-out: Ratio IC50

Row | SMILES | solubility thermodynamic at 2 h [1] [µM] | solubility thermodynamic at 2 h [2] [µM] | Activity (Plasmodium berghei [3]) [%] | MSD (Plasmodium berghei [4]) [days] | IC50 (Plasmodium falciparum [5]) [µM] | IC50 (Plasmodium falciparum [6]) [µM] | remaining at 0.5 h, 0.1 µM [7] [%] | remaining at 0.5 h, 0.1 µM [8] [%] | remaining at 0.5 h, 0.1 µM [9] [%] | MSD (Plasmodium berghei [10]) [days] | IC50 [11] [µM] | Activity (Plasmodium berghei [12]) [%] | Cmax [13] [µM] | selectivity ratio [14]
1 | Nc1ncc(-c2ccc(C(=O)N3CCC(N)CC3)cc2)nc1-c1ccc(C(F)(F)F)cc1 | 200 (≈ 88.3 µg/mL) | 88 (≈ 38.8 µg/mL) | 65 | 7 | 0.01 | 0.0075 |  |  |  |  |  |  |  | 
2 | Nc1ncc(-c2ccc(C(=O)N3CCCNCC3)cc2)nc1-c1ccc(C(F)(F)F)cc1 | 190 (≈ 83.9 µg/mL) | 128 (≈ 56.5 µg/mL) | 88 | 11 | 0.0077 | 0.0063 |  |  |  |  |  |  |  | 
3 | CNC(=O)c1ccc(-c2nc(-c3ccc(C(N)=O)cc3)cnc2N)cc1 | 186 (≈ 64.6 µg/mL) | 178 (≈ 61.8 µg/mL) |  |  | 0.052 | 0.052 |  |  |  |  |  |  |  | 
4 | CN1CCN(C(=O)c2ccc(-c3cnc(N)c(-c4ccc(C(F)(F)F)nc4)n3)cc2)CC1 | 200 (≈ 88.5 µg/mL) | 182 (≈ 80.5 µg/mL) | 81 | 7 | 0.0099 | 0.0099 | > 90 | > 90 | > 90 | 8 |  |  |  | 
5 | Nc1ccc(-c2nc(-c3ccc(C(=O)N4CCNCC4)cc3)cnc2N)cn1 | 189 (≈ 71 µg/mL) | 186 (≈ 69.8 µg/mL) |  |  | 0.051 | 0.037 |  |  |  |  |  |  |  | 
6 | Nc1ncc(-c2ccc(C(=O)N3CCC(N)CC3)cc2)nc1-c1ccc(C(F)(F)F)nc1 | 200 (≈ 88.5 µg/mL) | 163 (≈ 72.1 µg/mL) | 41 | 6 | 0.02 | 0.018 |  |  |  |  |  |  |  | 
7 | CN1CCCN(C(=O)c2ccc(-c3cnc(N)c(-c4ccc(C(F)(F)F)cc4)n3)cc2)CC1 | 200 (≈ 91.1 µg/mL) | 152 (≈ 69.2 µg/mL) | 90 | 7 | 0.0068 | 0.0057 |  |  |  |  | 5 |  |  | 
8 | Nc1ncc(-c2ccc(C(=O)N3CCNCC3)cc2)nc1-c1ccc(C(F)(F)F)nc1 | 200 (≈ 85.7 µg/mL) | 198 (≈ 84.8 µg/mL) | <40 |  | 0.0091 | 0.0077 | > 90 | > 90 | > 90 |  |  |  |  | 
9 | N#Cc1ccc(-c2cnc(N)c(-c3ccc(N)nc3)n2)cc1 | 208 (≈ 60 µg/mL) | < 5 |  |  | 0.222 | 0.149 | > 90 | > 90 | > 90 |  |  |  |  | 
10 | CN1CCCN(C(=O)c2ccc(-c3cnc(N)c(-c4ccc(C(F)(F)F)nc4)n3)cc2)CC1 | 200 (≈ 91.3 µg/mL) | 85 (≈ 38.8 µg/mL) |  | 12 | 0.015 | 0.0099 | > 90 | > 90 | > 90 |  |  |  |  | 
11 | CC(C)(C)N1CCN(C(=O)c2ccc(-c3cnc(N)c(-c4ccc(C(F)(F)F)cc4)n3)cc2)CC1 | 200 (≈ 96.7 µg/mL) | 95 (≈ 45.9 µg/mL) |  |  | 0.017 | 0.011 |  |  |  |  | 2 |  |  | 
12 | Nc1ncc(-c2ccc(C(=O)N3CCCNCC3)cc2)nc1-c1ccc(C(F)(F)F)nc1 | 200 (≈ 88.5 µg/mL) | 146 (≈ 64.6 µg/mL) | 55 | 7 | 0.0127 | 0.0102 |  |  |  |  |  |  |  | 
13 | Nc1ccc(-c2cnc(N)c(-c3ccc(N)nc3)n2)cn1 |  |  |  |  | 0.203 | 0.143 | > 90 | > 90 | > 90 |  |  |  |  | 
14 | NC(=O)c1ccc(-c2cnc(N)c(-c3ccc(C(F)(F)F)nc3)n2)nc1 | 123 (≈ 44.3 µg/mL) | < 5 |  |  | 1.58 |  |  |  |  |  |  |  |  | 
15 | Nc1ncc(-c2ccc(C(=O)N3CC[C@H](O)C3)cc2)nc1-c1ccc(C(F)(F)F)cc1 | 93 (≈ 39.8 µg/mL) | 68 (≈ 29.1 µg/mL) |  | 8 | 0.006 |  | > 90 | > 90 | > 90 | 16 |  | 100 |  | 
16 | COC(=O)c1ccc(-c2cnc(N)c(-c3ccc(C(F)(F)F)cc3)n2)cc1 | < 5 | < 5 |  |  | 2.63 |  |  |  |  |  |  |  |  | 
17 | N#Cc1ccc(-c2cnc(N)c(-c3ccc(C(F)(F)F)nc3)n2)nc1 |  |  |  |  | 2.71 |  |  |  |  |  |  |  |  | 
18 | CS(=O)(=O)c1ccc(-c2cnc(N)c(-c3ccc(N)nc3)n2)cc1 | 206 (≈ 70.3 µg/mL) | 149 (≈ 50.9 µg/mL) |  |  | 0.038 | 0.027 | > 90 | > 90 | > 90 |  |  |  |  | 
19 | Nc1ccc(-c2nc(-c3ccc(S(=O)(=O)C4CC4)cc3)cnc2N)cn1 | 212 (≈ 77.9 µg/mL) | 13 (≈ 4.78 µg/mL) |  |  | 0.038 | 0.044 | > 90 | > 90 | > 90 |  |  |  |  | 
20 | Nc1ccc(-c2cnc(N)c(-c3ccc(C(F)(F)F)nc3)n2)cn1 | 199 (≈ 66.1 µg/mL) | 34 (≈ 11.3 µg/mL) |  |  |  |  | > 90 | > 90 | > 90 |  |  |  |  | 
21 | NC(=O)c1ccc(-c2cnc(N)c(-c3ccc(C(N)=O)cc3)n2)cc1 |  |  |  |  | 0.025 | 0.021 |  |  |  |  |  |  |  | 
22 | Nc1ncc(-c2ccc(C(F)(F)F)nc2)nc1-c1ccc(C(F)(F)F)nc1 |  |  |  |  |  |  | > 90 | > 90 | > 90 |  |  |  |  | 
23 | N#Cc1ccc(-c2cnc(N)c(-c3ccc(C(N)=O)cc3)n2)cc1 |  |  |  |  | 0.057 | 0.044 |  |  |  |  |  |  |  | 
24 | CN1CCN(C(=O)c2ccc(-c3cnc(N)c(-c4ccc(C(F)(F)F)cc4)n3)cc2)CC1 |  |  |  | 12 | 0.0079 | 0.0068 | > 90 | > 90 | > 90 | 26 |  |  | 1.6 | 
25 | Nc1ncc(-c2ccc(C(=O)N3CCC(N)C3)cc2)nc1-c1ccc(C(F)(F)F)nc1 (stereo unspecified) | 200 (≈ 85.7 µg/mL) | 116 (≈ 49.7 µg/mL) | 47 | 7 | 0.04 | 0.026 |  |  |  |  |  |  |  | 
26 | Nc1ncc(-c2ccc(C(=O)N3CCC(O)C3)cc2)nc1-c1ccc(C(F)(F)F)nc1 (stereo unspecified) | 200 (≈ 85.9 µg/mL) | 155 (≈ 66.6 µg/mL) | 61 | 7 | 0.018 | 0.012 |  |  |  |  |  |  |  | 
27 | NC(=O)c1ccc(-c2cnc(N)c(-c3ccc(C(F)(F)F)nc3)n2)cn1 | 7 (≈ 2.52 µg/mL) | 5 (≈ 1.8 µg/mL) | 97.5 | 7 | 0.0052 | 0.0072 | > 90 | > 90 | > 90 | 14 |  | 99.9 |  | > 1800
